Laboratory results published in ChEMBL document CHEMBL1201862, “PubChem BioAssay data set” (2004).
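Following 48 hours of exposure in 96-well plates, responses at five concentrations were used to interpolate endpoints linearly. The concentration for 50% growth inhibition is given as GI50.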 Activity calls are given as the source filed them. Rule as the data show it: active = GI50 up to about 1.1 µM and inactive = higher.

Tests used:
Assay in all cases: DTP human tumour cell line panel, 48 h
SF-539 = tested on: SF-539
HCC 2998 = tested on: HCC 2998
SK-MEL-5 = tested on: SK-MEL-5
HOP-18 = tested on: HOP-18
OVCAR-3 = tested on: OVCAR-3
CCRF-CEM = tested on: CCRF-CEM
SNB-19 = tested on: SNB-19
HCT-15 = tested on: HCT-15
Malme-3M = tested on: Malme-3M
SF-268 = tested on: SF-268
KM12 = tested on: KM12
NCI-H226 = tested on: NCI-H226
SK-OV-3 = tested on: SK-OV-3
K562 = tested on: K562
M19-MEL = tested on: M19-MEL
MOLT-4 = tested on: MOLT-4
SNB-75 = tested on: SNB-75
EKVX = tested on: EKVX
RXF 393 = tested on: RXF 393
KM-20L2 = tested on: KM-20L2
DLD-1 = tested on: DLD-1
SN12C = tested on: SN12C
SR = tested on: SR
UO-31 = tested on: UO-31
CAKI-1 = tested on: CAKI-1
RPMI-8226 = tested on: RPMI-8226
LXFL 529 = tested on: LXFL 529
UACC-257 = tested on: UACC-257
RXF 631 = tested on: RXF 631
DMS-273 = tested on: DMS-273
IGROV-1 = tested on: IGROV-1
OVCAR-5 = tested on: OVCAR-5
NCI-H460 = tested on: NCI-H460
786-0 = tested on: 786-0
SK-MEL-2 = tested on: SK-MEL-2
HOP-62 = tested on: HOP-62
COLO 205 = tested on: COLO 205
TK-10 = tested on: TK-10
SK-MEL-28 = tested on: SK-MEL-28
A498 = tested on: A498
NCI-H23 = tested on: NCI-H23
ACHN = tested on: ACHN
OVCAR-4 = tested on: OVCAR-4
SW-620 = tested on: SW-620
U-251 = tested on: U-251
HCT-116 = tested on: HCT-116
UACC-62 = tested on: UACC-62
HOP-92 = tested on: HOP-92
A549 = tested on: A549
SF-295 = tested on: SF-295
HT-29 = tested on: HT-29
SNB-78 = tested on: SNB-78
M14 = tested on: M14
LOX IMVI = tested on: LOX IMVI
DMS-114 = tested on: DMS-114
NCI-H522 = tested on: NCI-H522
XF498 = tested on: XF498
HL-60 = tested on: HL-60
OVCAR-8 = tested on: OVCAR-8

Measured: GI50

Cc1ccccc1-c1c(N)nc(NC#N)nc1C(=O)Nc1ccccc1
inactive: SF-539 > 100 µM | HCC 2998 > 100 µM | SK-MEL-5 > 100 µM | HOP-18 > 100 µM | OVCAR-3 > 100 µM | CCRF-CEM > 100 µM | SNB-19 > 100 µM | Malme-3M > 100 µM | SF-268 > 100 µM | KM12 > 100 µM | NCI-H226 > 100 µM | SK-OV-3 > 100 µM | K562 > 100 µM | M19-MEL > 100 µM | MOLT-4 > 100 µM | SNB-75 76.4 µM | EKVX > 100 µM | RXF 393 > 100 µM | KM-20L2 > 100 µM | DLD-1 > 100 µM | SN12C 99.8 µM | SR > 100 µM | UO-31 > 100 µM | CAKI-1 > 100 µM | RPMI-8226 > 100 µM | LXFL 529 67.1 µM | UACC-257 > 100 µM | RXF 631 > 100 µM | DMS-273 > 100 µM | IGROV-1 > 100 µM | OVCAR-5 > 100 µM | NCI-H460 > 100 µM | 786-0 > 100 µM | SK-MEL-2 32.1 µM | HOP-62 > 100 µM | COLO 205 > 100 µM | TK-10 > 100 µM | SK-MEL-28 > 100 µM | A498 > 100 µM | NCI-H23 > 100 µM | ACHN > 100 µM | OVCAR-4 > 100 µM | SW-620 > 100 µM | U-251 > 100 µM | HCT-116 > 100 µM | UACC-62 > 100 µM | HOP-92 42.9 µM | A549 > 100 µM | SF-295 > 100 µM | HT-29 > 100 µM | SNB-78 > 100 µM | M14 > 100 µM | LOX IMVI > 100 µM | DMS-114 > 100 µM
> 100 µM: HCT-15

CNC1CC(n2cc(C)c(=O)[nH]c2=O)OC1CO (stereo not given)
inactive: SF-539 > 100 µM | HCC 2998 > 100 µM | CCRF-CEM > 100 µM | Malme-3M > 100 µM | SF-268 > 100 µM | NCI-H226 > 100 µM | SK-OV-3 > 100 µM | K562 > 100 µM | M19-MEL > 100 µM | MOLT-4 > 100 µM | SNB-75 > 100 µM | DLD-1 > 100 µM | SN12C > 100 µM | SR > 100 µM | UO-31 > 100 µM | NCI-H522 > 100 µM | CAKI-1 > 100 µM | RPMI-8226 > 100 µM | LXFL 529 > 100 µM | XF498 > 100 µM | RXF 631 > 100 µM | DMS-273 > 100 µM | IGROV-1 > 100 µM | 786-0 > 100 µM | SK-MEL-2 > 100 µM | HOP-62 > 100 µM | COLO 205 > 100 µM | SK-MEL-28 > 100 µM | HL-60 > 100 µM | A498 > 100 µM | NCI-H23 > 100 µM | ACHN > 100 µM | OVCAR-4 > 100 µM | HCT-116 > 100 µM | UACC-62 > 100 µM | HOP-92 > 100 µM | M14 > 100 µM | DMS-114 > 100 µM

COC(=O)c1ccc(/C=C/S(=O)(=O)c2ccccc2)cc1
inactive: SF-539 > 100 µM | SK-MEL-5 > 100 µM | OVCAR-3 > 100 µM | CCRF-CEM > 100 µM | SNB-19 > 100 µM | Malme-3M > 100 µM | SF-268 > 100 µM | KM12 > 100 µM | NCI-H226 > 100 µM | OVCAR-8 > 100 µM | SK-OV-3 > 100 µM | K562 > 100 µM | M19-MEL > 100 µM | MOLT-4 > 100 µM | SNB-75 67.6 µM | EKVX > 100 µM | RXF 393 > 100 µM | KM-20L2 > 100 µM | DLD-1 > 100 µM | SN12C > 100 µM | UO-31 > 100 µM | NCI-H522 83.9 µM | CAKI-1 > 100 µM | RPMI-8226 > 100 µM | LXFL 529 > 100 µM | XF498 > 100 µM | UACC-257 > 100 µM | RXF 631 > 100 µM | DMS-273 > 100 µM | IGROV-1 > 100 µM | OVCAR-5 > 100 µM | NCI-H460 > 100 µM | 786-0 > 100 µM | SK-MEL-2 > 100 µM | HOP-62 > 100 µM | COLO 205 > 100 µM | TK-10 > 100 µM | SK-MEL-28 44.9 µM | HL-60 > 100 µM | A498 > 100 µM | NCI-H23 > 100 µM | ACHN > 100 µM | OVCAR-4 > 100 µM | SW-620 > 100 µM | U-251 > 100 µM | HCT-116 > 100 µM | UACC-62 > 100 µM | HOP-92 > 100 µM | A549 > 100 µM | SF-295 > 100 µM | HT-29 > 100 µM | SNB-78 > 100 µM | M14 > 100 µM | LOX IMVI > 100 µM | DMS-114 > 100 µM
> 100 µM: HCT-15

COc1ccc2oc(-c3cccnc3)cc(=O)c2c1
inactive: HCC 2998 > 100 µM | OVCAR-3 91.8 µM | CCRF-CEM 49.9 µM | SNB-19 97.1 µM | Malme-3M > 100 µM | SF-268 58.3 µM | KM12 > 100 µM | NCI-H226 > 100 µM | K562 67.8 µM | M19-MEL > 100 µM | MOLT-4 36.6 µM | SNB-75 40.8 µM | RXF 393 > 100 µM | DLD-1 > 100 µM | SN12C 71.4 µM | UO-31 27.2 µM | CAKI-1 42.7 µM | RPMI-8226 53 µM | LXFL 529 71.6 µM | XF498 95.1 µM | UACC-257 > 100 µM | RXF 631 52.7 µM | DMS-273 52 µM | IGROV-1 70.8 µM | OVCAR-5 > 10 µM | NCI-H460 32.4 µM | 786-0 > 100 µM | SK-MEL-2 > 100 µM | HOP-62 84.7 µM | COLO 205 > 100 µM | SK-MEL-28 > 100 µM | HL-60 52.5 µM | A498 61.2 µM | NCI-H23 > 100 µM | ACHN 59.3 µM | OVCAR-4 > 100 µM | U-251 > 100 µM | HCT-116 80.7 µM | UACC-62 80.7 µM | HOP-92 46.1 µM | SF-295 > 100 µM | HT-29 59.4 µM | M14 > 100 µM | LOX IMVI 47.5 µM | DMS-114 80.7 µM

CC(=O)Nc1cccc2[nH]c3ccccc3c(=O)c12
inactive: SF-539 21.6 µM | SK-MEL-5 15.3 µM | HOP-18 6.82 µM | OVCAR-3 20.1 µM | CCRF-CEM 21.5 µM | SNB-19 23.2 µM | Malme-3M 22.3 µM | SF-268 26.7 µM | KM12 17.7 µM | NCI-H226 14.8 µM | OVCAR-8 16.4 µM | SK-OV-3 32.1 µM | K562 21.8 µM | M19-MEL 21.8 µM | MOLT-4 17.1 µM | SNB-75 8.67 µM | EKVX 25.1 µM | KM-20L2 21.1 µM | DLD-1 15.3 µM | SN12C 22.4 µM | UO-31 10.2 µM | NCI-H522 10.3 µM | CAKI-1 12.2 µM | RPMI-8226 14.7 µM | XF498 23.1 µM | UACC-257 25.2 µM | RXF 631 27 µM | DMS-273 32.2 µM | IGROV-1 26.4 µM | OVCAR-5 20.6 µM | NCI-H460 17 µM | 786-0 17.6 µM | SK-MEL-2 18.6 µM | COLO 205 16.3 µM | TK-10 20.4 µM | SK-MEL-28 31.5 µM | HL-60 12.6 µM | A498 14.9 µM | NCI-H23 12.3 µM | ACHN 17.4 µM | OVCAR-4 22.8 µM | SW-620 21.4 µM | U-251 24.1 µM | HCT-116 11.5 µM | UACC-62 13.8 µM | A549 21.6 µM | SF-295 19.5 µM | HT-29 17 µM | M14 30.9 µM | DMS-114 25.6 µM
14.2 µM: HCT-15
